Reference: publication PMC6158167 (Nature Communications, 2018)

Experiments:
ShHTL3 = biological target: ShHTL3; parameters: method as in PMID 27507097; conditions: ITC; read-out: KD of KAR1 to ShHTL3; cited from earlier work
ShHTL1 = ShHTL1 (Striga hermonthica, UniProt A0A0M4AV81); assay: ITC binding to ShHTL1; conditions: 3 mM KAR1 into 150 μM protein, 20 °C, means ± SD, n = 3, read-out: dissociation constant (KD) of KAR1 to ShHTL1
Description: Binding analyses of ShHTLs and ShD14 with KAR1. The ITC assays were performed by adding 3 mM KAR1 to 150 μM ShHTL1 (a), ShHTL4 (b), ShHTL7
ShHTL1 and AtHTL were fitted using the MicroCal origin software with the “one binding site” model.

[1] = tested on: ShHTL1–ShMAX2 interaction; conditions: Y2H dilution series, 5 μM ligand
Description: (§1) Full-length sequences of ShD14, ShHTL1, ShHTL3, ShHTL4, ShHTL7, and AtHTL were cloned into the pGBKT7 vector as bait (Clontech), and the coding regions of ShMAX2 and AtMAX2 were cloned into the pGADT7 vector as prey (Clontech). MAX2 was supposed to be unstable without ASK1. Therefore, AtASK1 was cloned into the N terminus of ShMAX2 and AtMAX2 with a 16-residue linker for co-expression. The bait and prey plasmids were co-transformed into the yeast (Saccharomyces cerevisiae) strain Y2HGold (Clontech) by the lithium acetate-mediated method. The presence of both plasmids was confirmed by growth on SD/-Leu/-Trp (-LT) plates. […] The plates were incubated for 5 days at 30 °C.
(§2) and AtHTL were detected using an anti-GST antibody, as indicated by the black arrows. (b)
(§3) 1/10, 1/20, 1/50, 1/100, 1/1000) of transformed yeast cells was plated on control medium (SD/-
(§4) Leu/-Trp; -LT) and selective medium (SD/-Leu/-Trp/-His/-Ade; -LTHA) in the absence or
(§5) (1 picture or pasted object on this page, not shown here)

[2] = tested on: ShHTL1-AtMAX2 interaction; conditions: Y2H dilution series, 5 μM ligand
Description: as §1, §2, §3, §4, §5

ShHTL3 and ShMAX2 = assay: In vitro pull-down ShHTL3-ShMAX2; assay type: binding, Striga hermonthica; conditions: 50 μM ligand
Description: Ni-NTA pull-down assays were performed with purified ShMAX2 or AtMAX2 as the bait and […]14, or GST-AtD14 as the prey. The molecular weight of the HTL/D14 proteins is nearly the same as that of ASK1; therefore, the HTL/D14 proteins were fused to GST, increasing their molecular weight for detection on SDS-PAGE gels. […] The protein complexes were then eluted with 100 μL of elution buffer containing 50 mM Bis-Tris, pH 6.8, 500 mM NaCl, and 500 mM imidazole and subjected to SDS-PAGE analysis.

AtHTL = biological target: T1, AtHTL (Arabidopsis thaliana, UniProt Q9SZU7); assay: ITC binding to AtHTL; conditions: 3 mM KAR1 into 150 μM protein, 20 °C
T1 sequence (Q9SZU7 1-270): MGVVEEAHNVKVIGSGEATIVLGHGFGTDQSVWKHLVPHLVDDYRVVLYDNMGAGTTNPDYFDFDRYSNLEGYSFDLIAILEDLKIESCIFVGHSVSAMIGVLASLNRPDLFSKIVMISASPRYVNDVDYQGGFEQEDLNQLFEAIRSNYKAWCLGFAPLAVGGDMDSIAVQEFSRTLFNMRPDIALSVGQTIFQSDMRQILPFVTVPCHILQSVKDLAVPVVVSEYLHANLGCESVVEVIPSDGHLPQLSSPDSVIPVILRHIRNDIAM
Description: (§6) The binding assays were performed using a MicroCal iTC200 isothermal titration calorimeter (GE Healthcare). Prior to the ITC experiments, concentrated ShD14, ShHTL1, ShHTL4, and ShHTL7 were exchanged into a buffer consisting of 20 mM HEPES (pH 8.0) and 150 mM NaCl to remove dithiothreitol and were then adjusted to a final concentration of 150 μM. The sample cell was filled with protein solution (204 μL). Nineteen consecutive 2.0-μL aliquots of 3 mM KAR1 (3-methyl-2H-furo [2,3-c] pyran-2-one) were injected into a prepared protein solution at 150 s intervals at 20 °C. The first injection volume was 0.4 μL, and the observed thermal peak was excluded from the data analysis. A negative control was obtained by titrating 3 mM KAR1 into the buffer (20 mM HEPES, pH 8.0, 150 mM NaCl) in the same manner. Data fitting was performed in “one set of sites” mode, and KD values were calculated using Origin software provided by MicroCal.
(§7) Supplementary Figure 3. Binding analyses of ShHTLs and ShD14 with KAR1. The ITC
(§8) assays were performed by adding 3 mM KAR1 to 150 μM ShHTL1 (a), ShHTL4 (b), ShHTL7
(§9) (c), ShD14 (d) and AtHTL (e).
(§10) ShHTL1 and AtHTL were fitted using the MicroCal origin software with the “one binding site”
(§11) model. The ITC assays titrating KAR1 into ShHTL1 and AtHTL were repeated three times
(§12) independently (data not shown).

Striga = tested on: Striga; parameters: method as in doi:10.1016/j.plantsci.2009.06.007, PMID 26228149; conditions: cited from earlier work
[3] = tested on: ShHTL1–ShMAX2 interaction; assay: In vitro pull-down ShHTL1-ShMAX2; assay type: binding, Striga hermonthica; conditions: 50 μM ligand
Description: Ni-NTA pull-down assays were performed with purified ShMAX2 or AtMAX2 as the bait and […]14, or GST-AtD14 as the prey. The molecular weight of the HTL/D14 proteins is nearly the same as that of ASK1; therefore, the HTL/D14 proteins were fused to GST, increasing their molecular weight for detection on SDS-PAGE gels. […] The protein complexes were then eluted with 100 μL of elution buffer containing 50 mM Bis-Tris, pH 6.8, 500 mM NaCl, and 500 mM imidazole and subjected to SDS-PAGE analysis. Samples of […] […] also subjected to western blotting after separation by SDS-PAGE. The proteins were transferred from the SDS-PAGE gel to a polyvinylidene fluoride (PVDF) membrane (Merck Millipore). […] Next, the membrane was incubated with anti-GST antibody as the primary antibody (71097-3; Novagen; diluted 1:10,000) at 25 °C for 1.5 h and then washed 3 times with TBST buffer. Anti-mouse antibody (32430; Thermo Scientific; diluted 1:4000) conjugated to horseradish peroxidase was used as the secondary antibody. After incubation with the secondary antibody at 25 °C for 1.5 h, the membrane was washed 3 times. For detection, SuperSignal West Femto Maximum Sensitivity Substrate (Thermo Scientific) was used as the chemiluminescence substrate and ImageQuant LAS 4000 mini (GE Healthcare) was used for imaging.

ShHTL4 = assay: ITC binding to ShHTL4; parameters: species or system Striga hermonthica; conditions: 3 mM KAR1 into 150 μM protein
Description: as §6, §7, §8, §9, §10, §11, §12

Sequence of ShHTL1 (A0A0M4AV81 entry or part of it): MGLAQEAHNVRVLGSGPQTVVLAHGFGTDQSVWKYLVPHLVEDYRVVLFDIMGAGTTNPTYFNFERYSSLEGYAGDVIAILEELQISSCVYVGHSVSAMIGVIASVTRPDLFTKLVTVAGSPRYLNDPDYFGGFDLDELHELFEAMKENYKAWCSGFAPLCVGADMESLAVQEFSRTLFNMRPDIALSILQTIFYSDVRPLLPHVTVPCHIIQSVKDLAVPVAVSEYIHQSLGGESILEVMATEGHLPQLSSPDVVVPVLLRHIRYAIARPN

In the case of `Cc1c2ccocc-2oc1=O` [KAR1, 3-methyl-2H-furo [2,3-c] pyran-2-one], the Kd (ShHTL3) is listed as 78 ± 3 µM, the Kd (ShHTL1) is listed as 77 ± 12 µM and the “ligand effect on ShHTL1-ShMAX2 interaction” value [1] is listed as “significant difference between the control and the presence of KAR1 or rac-GR24 was not observed”. The “ligand effect on ShHTL1-AtMAX2 interaction” value [2] was “significant difference between the control and the presence of KAR1 or rac-GR24 was not observed”, the “ShHTL3-ShMAX2 interaction in the presence of ligand” value (ShHTL3 and ShMAX2) was “no direct interaction with ShMAX2 in the presence of KAR1” and the Kd (AtHTL) was 129 ± 17 µM. For the same molecule, the “induction of germination of Striga” value (Striga) was “fails to induce germination of Striga”, the “ShHTL1-ShMAX2 interaction in the presence of ligand” value [3] was “no direct interaction with ShMAX2 in the presence of KAR1” and the “KAR1 binding ability of ShHTL4” value (ShHTL4) was “no significant KAR1 binding ability”.
